Laboratory results published in publication PMC9469100, “Turning Nonselective Inhibitors of Type I Protein Arginine Methyltransferases into Potent and Selective Inhibitors of Protein Arginine Methyltransferase 4 through a Deconstruction–Reconstruction and Fragment-Growing Approach” (Journal of Medicinal Chemistry, 2022).
“Also recorded” adds a separate entry of the source. Each block holds one compound with its values, some of them ahead of it.

Experiments:
PRMT7 = molecular target: T1, PRMT7 (Homo sapiens, UniProt Q9NVM4); test: Radioisotope-based filter-binding (HotSpot) assay, PRMT7; conditions: read-out: IC50 (μM) PRMT7; radioisotope-based filter assay; 5 μM GST-GAR; 1 μM 3H-SAM
T1 sequence (Q9NVM4 2-692): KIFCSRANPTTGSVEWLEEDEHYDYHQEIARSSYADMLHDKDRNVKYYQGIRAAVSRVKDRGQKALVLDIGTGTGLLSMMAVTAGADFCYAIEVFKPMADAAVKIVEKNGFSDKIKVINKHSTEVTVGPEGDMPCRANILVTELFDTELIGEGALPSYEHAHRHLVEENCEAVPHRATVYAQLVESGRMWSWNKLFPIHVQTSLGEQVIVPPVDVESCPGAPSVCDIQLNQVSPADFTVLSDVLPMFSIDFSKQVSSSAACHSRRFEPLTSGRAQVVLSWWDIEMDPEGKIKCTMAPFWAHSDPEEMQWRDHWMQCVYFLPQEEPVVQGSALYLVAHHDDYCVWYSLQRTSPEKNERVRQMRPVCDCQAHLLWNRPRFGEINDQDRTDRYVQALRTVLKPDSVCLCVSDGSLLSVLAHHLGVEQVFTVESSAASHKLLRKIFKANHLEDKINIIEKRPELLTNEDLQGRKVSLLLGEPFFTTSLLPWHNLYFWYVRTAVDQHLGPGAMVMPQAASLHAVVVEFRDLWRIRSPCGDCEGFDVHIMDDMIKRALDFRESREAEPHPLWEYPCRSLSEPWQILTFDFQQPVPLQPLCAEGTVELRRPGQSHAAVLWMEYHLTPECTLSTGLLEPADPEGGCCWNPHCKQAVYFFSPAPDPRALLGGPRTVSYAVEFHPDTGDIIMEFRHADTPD
Experimental: (§2) Then, ^3H-SAM (final concentration 1 μM) was delivered into the reaction mixture to initiate the reaction. After incubation for 60 min at 30 °C, the reaction mixture was delivered to filter paper for detection (as assessed by scintillation). Data were analyzed using Excel and GraphPad Prism 6.0 software (GraphPad Software Inc., San Diego, CA) for IC50 curve fits using sigmoidal dose vs response-variable slope (four parameters) equations.

PRMT1 [1] = molecular target: T2, PRMT1 (Homo sapiens, UniProt Q99873); test: Radioisotope-based filter-binding (HotSpot) assay, PRMT1; conditions: for IC50: radioisotope-based filter assay
Target sequence in this assay (Q99873 2-371): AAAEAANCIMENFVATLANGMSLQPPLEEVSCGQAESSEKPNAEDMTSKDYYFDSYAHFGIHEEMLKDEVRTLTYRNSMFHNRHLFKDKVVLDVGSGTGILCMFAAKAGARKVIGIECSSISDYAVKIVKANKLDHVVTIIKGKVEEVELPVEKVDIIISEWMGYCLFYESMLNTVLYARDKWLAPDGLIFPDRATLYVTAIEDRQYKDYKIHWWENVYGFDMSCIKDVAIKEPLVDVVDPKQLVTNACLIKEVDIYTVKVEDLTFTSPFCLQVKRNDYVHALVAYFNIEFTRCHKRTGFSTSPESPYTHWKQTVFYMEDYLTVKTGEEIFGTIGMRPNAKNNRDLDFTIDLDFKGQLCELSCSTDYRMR
Experimental: as §2

SUV39H2 = molecular target: T3, SUV39H2 (Homo sapiens, UniProt Q9H5I1); test: HotSpot KMT activity assay, SUV39H2; format: biochemical; conditions: 1 µM; mean ± SD, two experiments; read-out: % enzyme residual activ. after treatment with 12h, 1 µM, SUV39H2
T3 construct: SUV39H2 (residues 46–410, C-terminus); N-terminal fusion protein with a C-terminal His-tag; His (C); purchased Reaction Biology Corporation
Experimental: (§1) Then, ^3H-SAM (final concentration 1 μM) was delivered into the reaction mixture to initiate the reaction. After incubation for 60 min at 30 °C, the reaction mixture was delivered to filter-paper for detection (as assessed by scintillation). […] No inhibitor control (DMSO) was considered as 100% enzyme activity. Data were analyzed using Excel and GraphPad Prism 6.0 software (GraphPad Software Inc., San Diego, CA). Values obtained for each compound are mean ± SD determined for two separate experiments.

SMYD3 = SMYD3 (Homo sapiens, UniProt Q9H7B4); test: HotSpot KMT activity assay, SMYD3; format: biochemical; conditions: 1 µM; mean ± SD, two experiments; read-out: % enzyme residual activ. after treatment with 12h, 1 µM, SMYD3
Experimental: as §1

G9a = G9a (Homo sapiens, UniProt Q96KQ7); test: HotSpot KMT activity assay, G9a; format: biochemical; conditions: mean ± SD, two experiments, read-out: % enzyme residual activ. after treatment with 12h, 1 µM, G9a
Experimental: as §1

PRMT4 (HEK293T cells) = test: Western blot with pan-PRMT4 substrate antibody, HEK293T; conditions: HEK293T; 10 and 50 μM; 24 h; PRMT4sub immunoblot
Experimental: (§3) HEK293T or MCF7 cells were treated with different compounds and then harvested and lysed at the indicated time, and the cell lysates were applied to Western blot analysis. In brief, cells were harvested and washed three times with cold PBS, and then cell lysis buffer (50 mM Tris-HCl, pH 7.5, 150 mM NaCl, 1% Nonidet P-40, 0.1% SDS, 1% sodium deoxycholate, 5 mM EDTA, supplemented with proteinase inhibitor mixture) was added to obtain the cell lysates. Cell debris was pelleted and discarded, whereas the supernatant was kept. Protein samples were added with SDS loading buffer and boiled for 10 min, followed by SDS-PAGE. Then the proteins were transferred to a PVDF membrane. The membrane was blocked with 5% fat-free milk for 1 h at room temperature and then incubated with primary antibodies (antihistone H3, Abcam, #ab18521; pan-PRMT4 substrate antibody, made in-house) at 4 °C overnight. The blot was then washed three times with PBST and incubated with secondary antibodies for 1 h at room temperature. After being washed three times with PBST, the membrane was incubated with ECL reagent, and the signals were detected on X-ray film.
(§4) The anti-PRMT4 substrate antibody was raised against the R388 site in the transcription factor NFIB.

SUV420H1 = molecular target: T4, SUV420H1 (Homo sapiens, UniProt Q4FZB7); test: HotSpot KMT activity assay, SUV420H1; format: biochemical; conditions: 1 µM; mean ± SD, two experiments; read-out: % enzyme residual activ. after treatment with 12h, 1 µM, SUV420H1
T4 construct: SUV420H1-tv2 (residues 2–393); C-terminus; N-terminal GST-tag; GST (N); purchased Reaction Biology Corporation
Experimental: as §1

PRMT4 (MCF7 cells) = test: Western blot with pan-PRMT4 substrate antibody, MCF7; conditions: 12h 10 and 50 μM, TP-064 10 μM; 4 and 8 days; PRMT4sub immunoblot
Experimental: as §3, §4

[2] = test system: panel of eight lysine methyltransferases (KMTs); test: Selectivity assay against a panel of KMTs; format: biochemical, human; conditions: 12h at 1 and 10 μM; ASH1L, EZH2, MLL1, SET7/9, SETD8, SUV39H2, SUV420H1, DOT1L
Experimental: as §1

EZH2 complex = molecular target: T5, EZH2 complex (Homo sapiens, UniProt Q15910); test: HotSpot KMT activity assay, EZH2; format: biochemical; conditions: mean ± SD, two experiments, read-out: % enzyme residual activ. after treatment with 12h, 1 µM, EZH2
T5 construct: including EZH2 residues 2–746, AEBP2 2–517; His (N); purchased Reaction Biology Corporation
Experimental: as §1

ASH1L = molecular target: T6, ASH1L (Homo sapiens, UniProt Q9NR48); test: HotSpot KMT activity assay, ASH1L; format: biochemical; conditions: 1 µM; mean ± SD, two experiments; read-out: % enzyme residual activ. after treatment with 12h, 1 µM, ASH1L
T6 construct: ASH1L (residues 2046–2330, with an N-terminal His-tag); His (N); purchased Reaction Biology Corporation
Experimental: as §1

SETD8 = molecular target: T7, SETD8 (Homo sapiens, UniProt Q9NQR1); test: HotSpot KMT activity assay, SETD8; format: biochemical; conditions: 1 µM; mean ± SD, two experiments; read-out: % enzyme residual activ. after treatment with 12h, 1 µM, SETD8
T7 construct: SETD8 (residues 190–352, C-terminus); N-terminal His-tag; His (N); purchased Reaction Biology Corporation
Experimental: as §1

SET7/9 = molecular target: T8, SET7/9 (Homo sapiens, UniProt Q8WTS6); test: HotSpot KMT activity assay, SET7/9; format: biochemical; conditions: 1 µM; mean ± SD, two experiments; read-out: % enzyme residual activ. after treatment with 12h, 1 µM, SET7/9
T8 construct: SET7/9 (residues 2–366, C-terminus); with a N-terminal GST-tag and a C-terminal His-tag; GST (N); His (C); purchased Reaction Biology Corporation
Experimental: as §1

MLL1 complex = molecular target: T9, MLL1 complex (Homo sapiens, UniProt Q03164); test: HotSpot KMT activity assay, MLL1; format: biochemical; conditions: 1 µM; mean ± SD, two experiments; read-out: % enzyme residual activ. after treatment with 12h, 1 µM, MLL1
T9 construct: including MLL1 residues 3745–3969, C-terminus; His (N); purchased Reaction Biology Corporation
Experimental: as §1

PRMT1 [3] = molecular target: T2, PRMT1; test: AlphaLISA PRMT1 activity assay (H4R3me)
Target sequence in this assay (Q99873 whole entry): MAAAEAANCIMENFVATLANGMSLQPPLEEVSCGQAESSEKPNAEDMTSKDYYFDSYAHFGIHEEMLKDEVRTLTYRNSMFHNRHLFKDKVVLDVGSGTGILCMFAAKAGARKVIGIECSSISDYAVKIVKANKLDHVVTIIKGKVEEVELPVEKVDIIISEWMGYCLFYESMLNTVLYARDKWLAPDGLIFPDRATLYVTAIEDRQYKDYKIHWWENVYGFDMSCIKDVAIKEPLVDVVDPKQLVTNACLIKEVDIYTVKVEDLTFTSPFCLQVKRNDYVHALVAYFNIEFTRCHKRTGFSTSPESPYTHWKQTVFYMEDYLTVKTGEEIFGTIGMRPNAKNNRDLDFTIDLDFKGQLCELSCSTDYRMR
Experimental: Then, we resolved to determine their effect on the catalytic activity of human recombinant PRMT1, chosen as representative of class I PRMTs. […] PRMT1 activity assays were performed by taking advantage of the AlphaLISA homogeneous proximity assay.
The reaction was incubated for 60 min, and then it was stopped by the addition of 5 μL of antimethyl-histone H4 arginine 3 (H4R3me) AlphaLISA acceptor beads (PerkinElmer, #AL150) (final concentration, 20 μg/mL) diluted in Epigenetic Buffer 1X (PerkinElmer, #AL008).
For each incubation step, the OptiPlate was sealed with protective foil to prevent evaporation and contamination. Donor and acceptor beads were added in subdued light.
The 100% activity (positive control) was reached using the vehicle (DMSO) while the 0% activity (negative control) was obtained without the protein. Data were analyzed using Excel software. Values obtained for each compound are mean ± SD determined for three separate experiments.

[4] = read-out: IC50 (μM) PRMT1, 5 μM histone H4, 1 μM 3H-SAM
[5] = read-out: IC50 PRMT1 (Figure 5 heatmap)

T7 sequence (Q9NQR1 231-393): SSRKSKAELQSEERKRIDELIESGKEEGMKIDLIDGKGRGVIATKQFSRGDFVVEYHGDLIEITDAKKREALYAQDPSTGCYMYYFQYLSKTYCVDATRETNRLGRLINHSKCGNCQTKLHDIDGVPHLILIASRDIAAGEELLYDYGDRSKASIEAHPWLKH
T4 sequence (Q4FZB7 2-393 isoform Q4FZB7-2): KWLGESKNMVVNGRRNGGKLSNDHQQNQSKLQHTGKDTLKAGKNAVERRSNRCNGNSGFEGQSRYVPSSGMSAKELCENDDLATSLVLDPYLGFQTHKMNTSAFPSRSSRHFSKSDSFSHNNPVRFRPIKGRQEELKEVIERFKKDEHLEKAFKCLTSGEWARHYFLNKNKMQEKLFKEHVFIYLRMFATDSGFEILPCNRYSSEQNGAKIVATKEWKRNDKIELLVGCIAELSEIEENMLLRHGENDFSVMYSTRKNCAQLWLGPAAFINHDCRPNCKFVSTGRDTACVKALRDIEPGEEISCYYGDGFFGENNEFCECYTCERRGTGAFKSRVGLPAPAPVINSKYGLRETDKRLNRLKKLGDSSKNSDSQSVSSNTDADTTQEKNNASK
Sequence of SMYD3 (Q9H7B4 whole entry): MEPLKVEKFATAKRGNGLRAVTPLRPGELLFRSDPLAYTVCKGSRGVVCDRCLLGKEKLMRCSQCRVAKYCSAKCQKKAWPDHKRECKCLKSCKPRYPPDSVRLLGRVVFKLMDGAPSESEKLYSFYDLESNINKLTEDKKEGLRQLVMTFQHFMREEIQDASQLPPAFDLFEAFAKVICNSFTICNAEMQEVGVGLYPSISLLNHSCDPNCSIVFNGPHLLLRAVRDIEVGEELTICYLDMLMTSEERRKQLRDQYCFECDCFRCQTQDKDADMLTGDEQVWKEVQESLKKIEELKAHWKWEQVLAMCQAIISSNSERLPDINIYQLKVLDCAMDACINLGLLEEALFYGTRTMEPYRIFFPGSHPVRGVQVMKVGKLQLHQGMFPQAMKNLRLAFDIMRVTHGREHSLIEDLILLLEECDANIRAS
T8 sequence (Q8WTS6 2-366): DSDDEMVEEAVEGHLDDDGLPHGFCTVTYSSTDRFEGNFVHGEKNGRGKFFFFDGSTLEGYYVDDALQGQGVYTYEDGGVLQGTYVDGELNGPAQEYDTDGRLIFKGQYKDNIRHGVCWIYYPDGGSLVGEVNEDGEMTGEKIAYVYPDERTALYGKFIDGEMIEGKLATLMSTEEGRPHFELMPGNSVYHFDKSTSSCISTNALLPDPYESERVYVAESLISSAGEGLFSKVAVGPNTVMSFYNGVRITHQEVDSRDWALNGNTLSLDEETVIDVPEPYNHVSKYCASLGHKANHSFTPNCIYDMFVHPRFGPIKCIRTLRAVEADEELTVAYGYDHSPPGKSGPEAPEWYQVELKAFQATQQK
Sequence of G9a (Q96KQ7 whole entry): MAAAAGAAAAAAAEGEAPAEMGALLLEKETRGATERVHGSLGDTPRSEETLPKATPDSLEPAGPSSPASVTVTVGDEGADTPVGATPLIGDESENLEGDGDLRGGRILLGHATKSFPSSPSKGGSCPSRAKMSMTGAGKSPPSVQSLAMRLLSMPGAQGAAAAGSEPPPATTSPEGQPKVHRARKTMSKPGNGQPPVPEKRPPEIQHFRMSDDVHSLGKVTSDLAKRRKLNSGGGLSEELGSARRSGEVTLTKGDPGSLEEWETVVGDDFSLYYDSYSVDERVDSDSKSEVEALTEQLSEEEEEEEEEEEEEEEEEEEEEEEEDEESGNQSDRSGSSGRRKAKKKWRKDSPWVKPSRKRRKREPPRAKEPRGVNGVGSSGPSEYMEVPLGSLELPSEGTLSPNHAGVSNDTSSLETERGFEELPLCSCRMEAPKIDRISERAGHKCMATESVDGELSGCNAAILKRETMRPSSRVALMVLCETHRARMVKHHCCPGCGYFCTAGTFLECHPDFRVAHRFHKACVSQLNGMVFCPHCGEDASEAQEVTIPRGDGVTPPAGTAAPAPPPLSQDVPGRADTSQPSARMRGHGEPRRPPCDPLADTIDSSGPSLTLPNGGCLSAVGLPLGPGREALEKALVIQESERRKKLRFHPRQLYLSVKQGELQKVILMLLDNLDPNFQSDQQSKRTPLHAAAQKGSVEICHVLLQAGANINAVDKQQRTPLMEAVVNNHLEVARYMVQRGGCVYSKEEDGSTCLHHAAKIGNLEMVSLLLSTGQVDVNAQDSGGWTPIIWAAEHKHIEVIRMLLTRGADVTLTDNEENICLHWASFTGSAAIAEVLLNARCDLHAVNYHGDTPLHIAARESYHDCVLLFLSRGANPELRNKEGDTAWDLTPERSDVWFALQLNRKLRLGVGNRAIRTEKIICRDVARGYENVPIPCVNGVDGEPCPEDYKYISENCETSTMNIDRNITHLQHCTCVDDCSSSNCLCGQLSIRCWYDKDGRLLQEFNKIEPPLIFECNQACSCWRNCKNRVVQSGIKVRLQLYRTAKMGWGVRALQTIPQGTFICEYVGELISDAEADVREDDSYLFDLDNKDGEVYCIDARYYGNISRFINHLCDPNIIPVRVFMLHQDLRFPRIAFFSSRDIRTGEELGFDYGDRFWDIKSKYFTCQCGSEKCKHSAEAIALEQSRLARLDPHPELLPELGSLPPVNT
T3 sequence (Q9H5I1 46-410): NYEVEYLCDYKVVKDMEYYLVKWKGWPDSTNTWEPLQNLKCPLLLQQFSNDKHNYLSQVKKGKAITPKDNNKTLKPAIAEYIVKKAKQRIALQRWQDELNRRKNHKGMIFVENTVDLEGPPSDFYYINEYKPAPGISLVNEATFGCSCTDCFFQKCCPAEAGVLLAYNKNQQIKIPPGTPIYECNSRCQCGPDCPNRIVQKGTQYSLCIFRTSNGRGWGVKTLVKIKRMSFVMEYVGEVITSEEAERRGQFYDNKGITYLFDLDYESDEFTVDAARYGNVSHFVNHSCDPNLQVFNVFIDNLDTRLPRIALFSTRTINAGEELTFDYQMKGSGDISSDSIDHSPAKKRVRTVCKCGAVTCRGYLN

IC50 (PRMT7): 0.631 µM
gain in the inhibitory activity against PRMT1 (PRMT1 [1]; on increasing the linker between 4-hydroxy-2-naphthoate and guanidine (values equal the ratio to the IC50 of 12c)): 3.2 fold
IC50 (PRMT1 [1]; [4]): 2.6 µM
IC50 (PRMT1 [1]; [5]): 2.6 µM
SMILES: COC(=O)c1cc(O)c2cc(NC(=O)NCCCCCCCNC(=N)NC[C@H]3O[C@@H](n4cnc5c(N)ncnc54)[C@H](O)[C@@H]3O)ccc2c1 [12e, Methyl 6-(3-(7-(3-(((2R,3S,4R,5R)-5-(6-Amino-9H-purin-9-yl)-3,4-dihydroxytetrahydrofuran-2-yl)methyl)guanidino)heptyl)ureido)-4-hydroxy-2-naphthoate]

SMILES: COC(=O)c1cc(O)c2cc(NC(=O)NCCCCNC(=N)NC/C=C/[C@H]3O[C@@H](n4cnc5c(N)ncnc54)[C@H](O)[C@@H]3O)ccc2c1 [12h, Methyl 6-(3-(4-(3-((E)-3-((2R,3S,4R,5R)-5-(6-Amino-9H-purin-9-yl)-3,4-dihydroxytetrahydrofuran-2-yl)allyl)guanidino)butyl)ureido)-4-hydroxy-2-naphthoate]
remaining activity at 1 µM (SUV39H2): 114 ± 1.92%
remaining activity at 1 µM (SMYD3): 72.83 ± 0.68%
remaining activity at 1 µM (G9a): 102 ± 1.67%
cellular level of arginine methylation catalyzed by PRMT4 (PRMT4 (HEK293T cells)): able to reduce the activity of PRMT4 in a concentration-dependent way
remaining activity at 1 µM (SUV420H1): 104 ± 1.13%
arginine methylation levels in MCF7 cells (PRMT4 (MCF7 cells)): evident reduction
inhibition of the KMT panel [2]: none of the enzymes was inhibited; also recorded: no inhibiting effect against these enzymes
remaining activity at 1 µM (EZH2 complex): 84.4 ± 5.51%
remaining activity at 1 µM (ASH1L): 90.76 ± 0.13%
IC50 (PRMT7): 1.68 µM
remaining activity at 1 µM (SETD8): 130 ± 6.36%
remaining activity at 1 µM (SET7/9): 112 ± 2.25%
remaining activity at 1 µM (MLL1 complex): 102 ± 3.11%

IC50 (PRMT1 [3]): 0.3 µM
IC50 (PRMT7): 0.22 µM
IC50 (PRMT1 [1]; [4]): 8.46 µM
SMILES: COC(=O)c1cc(O)c2cc(NC(=O)NCCCCCNC(=N)NC[C@H]3O[C@@H](n4cnc5c(N)ncnc54)[C@H](O)[C@@H]3O)ccc2c1 [12c, Methyl 6-(3-(5-(3-(((2R,3S,4R,5R)-5-(6-Amino-9H-purin-9-yl)-3,4-dihydroxytetrahydrofuran-2-yl)methyl)guanidino)pentyl)ureido)-4-hydroxy-2-naphthoate]

IC50 (PRMT7): 4.68 µM
IC50 (PRMT1 [1]; [4]): 1.8 µM
IC50 (PRMT1 [1]; [5]): 1.79 µM
SMILES: COC(=O)c1cc(O)c2cc(NC(=O)NCCCCNC(=N)NCCC[C@H]3O[C@@H](n4cnc5c(N)ncnc54)[C@H](O)[C@@H]3O)ccc2c1 [12g, Methyl 6-(3-(4-(3-(3-((2R,3S,4R,5R)-5-(6-Amino-9H-purin-9-yl)-3,4-dihydroxytetrahydrofuran-2-yl)propyl)guanidino)butyl)ureido)-4-hydroxy-2-naphthoate]

IC50 (PRMT7): 0.226 µM
IC50 (PRMT1 [1]; [4]): 4.86 µM
IC50 (PRMT1 [1]; [5]): 4.86 µM
SMILES: COC(=O)c1cc(O)c2cc(NC(=O)NCCCCNC(=N)NCC[C@H]3O[C@@H](n4cnc5c(N)ncnc54)[C@H](O)[C@@H]3O)ccc2c1 [12f, Methyl 6-(3-(4-(3-(2-((2R,3S,4R,5R)-5-(6-Amino-9H-purin-9-yl)-3,4-dihydroxytetrahydrofuran-2-yl)ethyl)guanidino)butyl)ureido)-4-hydroxy-2-naphthoate]
